The supplement of paper PMC6045584
± gives the standard deviation of the averaged measurements.

Legend:
[1] = compound: Cn1cc(C2=Nc3cc(NC(=O)C(N)C4CCCCC4)cc4c3C2=CNNC4=O)cn1; test: area under dose-response curve of surviving fraction (unscaled, Aref=0) (surviving fraction x log10(nM)); higher = more resistant; details: exposure time: 5 days; dose range 0.5-1000 nM
Method in brief: (§1)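 Each tumour cell line was screened three times in 384-well plates, receiving eight inhibitor concentrations from 0.5 to 1000 nM for five days. CellTiter-Glo luminescence gave viability, normalised to DMSO-only wells. Using the drc R package, surviving fractions were fitted with 3-parameter logistic dose-response curves, and the unscaled activity area over log10 dose (Aref = 0) was taken as the area under the curve.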

AFATINIB [2] = compound: T1, CN(C)C/C=C/C(=O)Nc1cc2c(Nc3ccc(F)c(Cl)c3)ncnc2cc1O[C@H]1CCOC1 [AFATINIB]; test: as above; details: exposure time: 5 days; dose range 0.5-1000 nM
Method in brief: as §1

TIOGUANINE [3] = compound: T2, Nc1nc2[nH]cnc2c(=S)[nH]1 [TIOGUANINE]; test: as above; details: exposure time: 5 days; dose range 0.5-1000 nM
Method in brief: as §1

CANERTINIB [4] = compound: T3, C=CC(=O)Nc1cc2c(Nc3ccc(F)c(Cl)c3)ncnc2cc1OCCCN1CCOCC1 [CANERTINIB]; test: as above; details: exposure time: 5 days; dose range 0.5-1000 nM
Method in brief: as §1

SNX-5422 [5] = compound: T4, CC1(C)CC(=O)c2c(C(F)(F)F)nn(-c3ccc(C(N)=O)c(N[C@H]4CC[C@H](OC(=O)CN)CC4)c3)c2C1 [SNX-5422]; test: as above; details: exposure time: 5 days; dose range 0.5-1000 nM
Method in brief: as §1

SAPACITABINE [6] = compound: T5, CCCCCCCCCCCCCCCC(=O)Nc1ccn([C@@H]2O[C@H](CO)[C@@H](O)[C@@H]2C#N)c(=O)n1 [SAPACITABINE]; test: as above; details: exposure time: 5 days; dose range 0.5-1000 nM
Method in brief: as §1

BI-2536 [7] = compound: T6, CC[C@@H]1C(=O)N(C)c2cnc(Nc3ccc(C(=O)NC4CCN(C)CC4)cc3OC)nc2N1C1CCCC1 [BI-2536]; test: as above; details: exposure time: 5 days; dose range 0.5-1000 nM
Method in brief: as §1

MDV3100 [8] = compound: T7, CNC(=O)c1ccc(N2C(=S)N(c3ccc(C#N)c(C(F)(F)F)c3)C(=O)C2(C)C)cc1F [MDV3100]; test: as above; details: exposure time: 5 days; dose range 0.5-1000 nM
Method in brief: as §1

[9] = compound: Cn1cc(C2=Nc3cc(NC(=O)C(N)C4CCCCC4)cc4c3C2=CNNC4=O)cn1; test: surviving fraction relative to DMSO-only wells; higher = less growth inhibition; details: exposure time: 5 days
Method in brief: (§2)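 At 250–500 cells per well in 384-well plates, log-phase tumour cell lines were seeded and, 24 hours on, exposed continuously for five days to inhibitors at 0.5, 1, 5, 10, 50, 100, 500 and 1000 nM. Viability readout was CellTiter-Glo luminescence, reported as surviving fraction normalised to the median of DMSO-only wells.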

AFATINIB [10] = compound: T1, AFATINIB; test: as above; details: exposure time: 5 days
Method in brief: as §2

TIOGUANINE [11] = compound: T2, TIOGUANINE; test: as above; details: exposure time: 5 days
Method in brief: as §2

CANERTINIB [12] = compound: T3, CANERTINIB; test: as above; details: exposure time: 5 days
Method in brief: as §2

SNX-5422 [13] = compound: T4, SNX-5422; test: as above; details: exposure time: 5 days
Method in brief: as §2

SAPACITABINE [14] = compound: T5, SAPACITABINE; test: as above; details: exposure time: 5 days
Method in brief: as §2

BI-2536 [15] = compound: T6, BI-2536; test: as above; details: exposure time: 5 days
Method in brief: as §2

MDV3100 [16] = compound: T7, MDV3100; test: as above; details: exposure time: 5 days
Method in brief: as §2

In the case of CADOES1 SOFT TISSUE, the “area under dose-response curve” value [1] is reported as 3.08, the “area under dose-response curve” value (AFATINIB [2]) is reported as 2.94 and the “area under dose-response curve” value (TIOGUANINE [3]) is reported as 3.12. For the same test system, the “area under dose-response curve” value (CANERTINIB [4]) was 3, the “area under dose-response curve” value (SNX-5422 [5]) was 1.95 and the “area under dose-response curve” value (SAPACITABINE [6]) was 1.99. The “area under dose-response curve” value (BI-2536 [7]) was 1.66, the “area under dose-response curve” value (MDV3100 [8]) was 2.95 and the surviving fraction ([9]; 0.5 nM) was 0.973 ± 0.13. For the same test system, the surviving fraction ([9]; 1 nM) was 0.933 ± 0.073, the surviving fraction ([9]; 5 nM) was 0.868 ± 0.011 and the surviving fraction ([9]; 10 nM) was 0.905 ± 0.051. It also gave a surviving fraction ([9]; 50 nM) of 0.88 ± 0.071, a surviving fraction ([9]; 100 nM) of 0.988 ± 0.13 and a surviving fraction ([9]; 500 nM) of 0.798 ± 0.068. It also gave a surviving fraction ([9]; 1000 nM) of 0.558 ± 0.027, a surviving fraction (AFATINIB [10]; 0.5 nM) of 0.833 ± 0.033 and a surviving fraction (AFATINIB [10]; 1 nM) of 0.909 ± 0.063. It also gave a surviving fraction (AFATINIB [10]; 5 nM) of 0.914 ± 0.0056, a surviving fraction (AFATINIB [10]; 10 nM) of 0.98 ± 0.011 and a surviving fraction (AFATINIB [10]; 50 nM) of 0.837 ± 0.018. The surviving fraction (AFATINIB [10]; 100 nM) was 0.997 ± 0.024, the surviving fraction (AFATINIB [10]; 500 nM) was 0.931 ± 0.11 and the surviving fraction (AFATINIB [10]; 1000 nM) was 0.724 ± 0.051. The surviving fraction (TIOGUANINE [11]; 0.5 nM) was 0.965 ± 0.12, the surviving fraction (TIOGUANINE [11]; 1 nM) was 0.922 ± 0.059 and the surviving fraction (TIOGUANINE [11]; 5 nM) was 0.93 ± 0.067. It also gave a surviving fraction (TIOGUANINE [11]; 10 nM) of 0.955 ± 0.045, a surviving fraction (TIOGUANINE [11]; 50 nM) of 0.989 ± 0.15 and a surviving fraction (TIOGUANINE [11]; 100 nM) of 0.952 ± 0.097. It also gave a surviving fraction (TIOGUANINE [11]; 500 nM) of 0.842 ± 0.095, a surviving fraction (TIOGUANINE [11]; 1000 nM) of 0.78 ± 0.048 and a surviving fraction (CANERTINIB [12]; 0.5 nM) of 1 ± 0.13. The surviving fraction (CANERTINIB [12]; 1 nM) was 0.945 ± 0.049, the surviving fraction (CANERTINIB [12]; 5 nM) was 0.945 ± 0.038 and the surviving fraction (CANERTINIB [12]; 10 nM) was 0.93 ± 0.075. It also gave a surviving fraction (CANERTINIB [12]; 50 nM) of 0.918 ± 0.17, a surviving fraction (CANERTINIB [12]; 100 nM) of 0.926 ± 0.029 and a surviving fraction (CANERTINIB [12]; 500 nM) of 0.738 ± 0.12. It also gave a surviving fraction (CANERTINIB [12]; 1000 nM) of 0.595 ± 0.035, a surviving fraction (SNX-5422 [13]; 0.5 nM) of 0.975 ± 0.13 and a surviving fraction (SNX-5422 [13]; 1 nM) of 0.967 ± 0.089. The surviving fraction (SNX-5422 [13]; 5 nM) was 1.07 ± 0.04, the surviving fraction (SNX-5422 [13]; 10 nM) was 0.943 ± 0.11 and the surviving fraction (SNX-5422 [13]; 50 nM) was 0.365 ± 0.064. For the same test system, the surviving fraction (SNX-5422 [13]; 100 nM) was 0.122 ± 0.02, the surviving fraction (SNX-5422 [13]; 500 nM) was 0.061 ± 0.0056 and the surviving fraction (SNX-5422 [13]; 1000 nM) was 0.0547 ± 0.00058. It also gave a surviving fraction (SAPACITABINE [14]; 0.5 nM) of 1.04 ± 0.053, a surviving fraction (SAPACITABINE [14]; 1 nM) of 1.03 ± 0.022 and a surviving fraction (SAPACITABINE [14]; 5 nM) of 0.915 ± 0.11. It also gave a surviving fraction (SAPACITABINE [14]; 10 nM) of 0.857 ± 0.074, a surviving fraction (SAPACITABINE [14]; 50 nM) of 0.553 ± 0.075 and a surviving fraction (SAPACITABINE [14]; 100 nM) of 0.209 ± 0.066. The surviving fraction (SAPACITABINE [14]; 500 nM) was 0.0497 ± 0.0072, the surviving fraction (SAPACITABINE [14]; 1000 nM) was 0.0437 ± 0.0035 and the surviving fraction (BI-2536 [15]; 0.5 nM) was 1.04 ± 0.059. For the same test system, the surviving fraction (BI-2536 [15]; 1 nM) was 0.939 ± 0.059, the surviving fraction (BI-2536 [15]; 5 nM) was 0.872 ± 0.093 and the surviving fraction (BI-2536 [15]; 10 nM) was 0.792 ± 0.12. For the same test system, the surviving fraction (BI-2536 [15]; 50 nM) was 0.193 ± 0.025, the surviving fraction (BI-2536 [15]; 100 nM) was 0.0877 ± 0.018 and the surviving fraction (BI-2536 [15]; 500 nM) was 0.0517 ± 0.016. The surviving fraction (BI-2536 [15]; 1000 nM) was 0.0513 ± 0.0051, the surviving fraction (MDV3100 [16]; 0.5 nM) was 0.925 ± 0.1 and the surviving fraction (MDV3100 [16]; 1 nM) was 0.911 ± 0.12. It also gave a surviving fraction (MDV3100 [16]; 5 nM) of 0.777 ± 0.092, a surviving fraction (MDV3100 [16]; 10 nM) of 0.848 ± 0.07 and a surviving fraction (MDV3100 [16]; 50 nM) of 0.871 ± 0.087. The surviving fraction (MDV3100 [16]; 100 nM) was 0.899 ± 0.093, the surviving fraction (MDV3100 [16]; 500 nM) was 0.955 ± 0.068 and the surviving fraction (MDV3100 [16]; 1000 nM) was 1.05 ± 0.02.
